In ChEMBL document CHEMBL4765430, “Endeavors towards transformation of M. tuberculosis thymidylate kinase (MtbTMPK) inhibitors into potential antimycobacterial agents” (Eur J Med Chem, 2020):
Values after ≈ are worked out from the molar mass of the structure shown.

Legend:
[1] = Inhibition of wild-type Mycobacterium tuberculosis thymidylate kinase expressed in Escherichia coli BLi5 competent cells using dTMP as substrate by lactate dehydrogenase, pyruvate kinase and nucleoside diphosphate kinase coupled spectrophotometric method
[2] = system: Mycobacterium tuberculosis; experiment: Antitubercular activity against Mycobacterium tuberculosis H37Ra incubated for 7 to 14 days under 7H9/glucose medium; format: functional; details: time 7-14 day
[3] = Cytotoxicity against human MRC5 cells measured after 24 hrs by neutral red uptake assay; format: cell-based
[4] = system: Mycobacterium tuberculosis; experiment: Antitubercular activity against Mycobacterium tuberculosis H37Rv ATCC 27294 incubated for 7 to 14 days under GAST (Fe(-)) medium; format: functional; details: time 7-14 day
[5] = system: Mycobacterium tuberculosis; experiment: Antitubercular activity against Mycobacterium tuberculosis H37Rv ATCC 27294 incubated for 7 to 14 days under GAST (Fe(+)) medium; format: functional; details: time 7-14 day
[6] = system: Mycobacterium tuberculosis; experiment: Antitubercular activity against Mycobacterium tuberculosis H37Rv ATCC 27294 incubated for 7 to 14 days under 7H9/glucose medium; format: functional; details: time 7-14 day
[7] = Stability of compound in pH 6.6 ammonium bicarbonate-formic acid buffer assessed as degradation measured up to 6 hrs by LC-MS analysis; format: physicochemical; details: read-out: Drug degradation
[8] = Stability of compound in pH 6.6 ammonium bicarbonate-formic acid buffer assessed as parent compound remaining measured after 24 hrs by LC-MS analysis; format: physicochemical; details: read-out: Stabilty
[9] = Stability of compound in pH 6.6 ammonium bicarbonate-formic acid buffer assessed as hydrolysis measured after 24 hrs by LC-MS analysis; format: physicochemical; details: pH 6.6, 24 h

| Compound | IC50 ([1]; read-out: IC50) [nM] | MIC99 [2] [µM] | CC50 at 24 h [3] [µM] | MIC99 [4] [µM] | MIC99 [5] [µM] | MIC99 [6] [µM] | degraded at 6 h [7] [%] | remaining at 24 h [8] [%] | Stabilty [9] | IC50 [1] |
| --- | --- | --- | --- | --- | --- | --- | --- | --- | --- | --- |
| Cc1cn(C2CCN(Cc3ccc(Oc4ccccc4)cc3)CC2)c(=O)[nH]c1=O | 29000 | > 64 |  |  |  |  |  |  |  |  |
| Cc1cn(C2CCN(Cc3cc(Oc4ccc(C(=O)O)c(O)c4)c4ccccc4n3)CC2)c(=O)[nH]c1=O | 1300 |  | > 64 | ≥ 100 | 100 (≈ 50.3 µg/mL) | > 100 |  |  |  |  |
| CCc1nc2ccc(Cl)cn2c1C(=O)NCc1ccc(N2CCC(n3cc(C)c(=O)[nH]c3=O)CC2)cc1 | 47000 |  | > 64 |  | 2.3 (≈ 1.2 µg/mL) | 4.7 (≈ 2.45 µg/mL) |  |  |  |  |
| Cc1cn(C2CCN(Cc3ccc4cccc(O)c4n3)CC2)c(=O)[nH]c1=O | 23000 |  | 54 | > 100 | > 100 | 75 (≈ 27.5 µg/mL) |  |  |  |  |
| Cc1cn(C2CCN(Cc3cc(OCCOC(=O)c4ccc(O)c(O)c4)c4ccccc4n3)CC2)c(=O)[nH]c1=O | 140 |  | 6.39 | > 100 | > 100 | ≥ 100 |  |  |  |  |
| Cc1cn(C2CCN(Cc3ccc(CNC(=O)c4cc([N+](=O)[O-])cc([N+](=O)[O-])c4)cc3)CC2)c(=O)[nH]c1=O | 48000 |  | > 64 | 6.25 (≈ 3.27 µg/mL) | 9.4 (≈ 4.91 µg/mL) | 9.4 (≈ 4.91 µg/mL) |  |  |  |  |
| Cc1cn(C2CCN(Cc3cc(Oc4ccc(OC(=O)c5ccc(O)c(O)c5)cc4)c4ccccc4n3)CC2)c(=O)[nH]c1=O | 180 |  |  |  | 37 (≈ 22 µg/mL) | > 50 | < 10 | > 70 | Stable |  |
| Cc1cn(C2CCN(Cc3cc(Oc4ccc(C(=O)NO)cc4)c4ccccc4n3)CC2)c(=O)[nH]c1=O | 1000 |  | 32.2 |  | 50 (≈ 25.1 µg/mL) | > 50 |  |  |  |  |
| CCc1nc2ccc(Cl)cn2c1C(=O)N1CCC(n2cc(C)c(=O)[nH]c2=O)CC1 | 879000 |  | > 64 | > 100 | > 100 | > 100 |  |  |  |  |
| Cc1cn(C2CCN(Cc3cc(Oc4ccc(/C=N/NC(=S)S)c(O)c4)c4ccccc4n3)CC2)c(=O)[nH]c1=O | 310 |  | 1.45 | 25 (≈ 14.4 µg/mL) | 100 (≈ 57.7 µg/mL) | > 100 | < 10 | > 70 |  |  |
| Cc1cn(C2CCN(Cc3cc(NCCOC(=O)c4ccc(O)c(O)c4)c4ccccc4n3)CC2)c(=O)[nH]c1=O | 240 |  | > 64 | 100 (≈ 54.6 µg/mL) | > 100 | > 100 |  | > 70 |  |  |
| Cc1cn(C2CCN(Cc3cc(Oc4ccc(O)cc4)c4ccccc4n3)CC2)c(=O)[nH]c1=O | 830 |  | > 64 | ≥ 100 | > 100 | ≥ 100 |  |  |  |  |
| Cc1cn(C2CCN(Cc3cc(=O)c4ccccc4[nH]3)CC2)c(=O)[nH]c1=O | 7800 |  | > 64 | > 100 | > 100 | > 100 |  |  |  |  |
| Cc1cn(C2CCN(c3ccc(CNC(=O)c4ccc([N+](=O)[O-])cc4[N+](=O)[O-])cc3)CC2)c(=O)[nH]c1=O |  |  | > 64 | 1.2 (≈ 0.61 µg/mL) | 0.78 (≈ 0.397 µg/mL) | 9.4 (≈ 4.78 µg/mL) |  |  |  | Nd(Unstable) |
| Cc1cn(C2CCN(Cc3cccc(-c4ccccn4)n3)CC2)c(=O)[nH]c1=O | 34000 |  | > 64 | > 100 | > 100 | 12.5 (≈ 4.72 µg/mL) |  |  |  |  |
| Cc1cn(C2CCN(Cc3cc(OCCO)c4ccccc4n3)CC2)c(=O)[nH]c1=O | 2400 |  | > 64 | > 100 | > 100 | > 100 |  |  |  |  |
| Cc1cn(C2CCN(Cc3cc(NCCO)c4ccccc4n3)CC2)c(=O)[nH]c1=O | 530 |  | > 64 | > 100 | > 100 | > 100 |  |  |  |  |
| NNC(=O)c1ccncc1 [ISONIAZID] |  |  |  | 0.15 (≈ 0.0206 µg/mL) | 0.15 (≈ 0.0206 µg/mL) | 0.15 (≈ 0.0206 µg/mL) |  |  |  |  |
